Test results from US20070225253A1, “Use of a trioxopyrimidine for the treatment and prevention of bronchial inflammatory diseases” (priority 2004, published 2007).

Assays:
Human MMP-2 = biological target: T1, Human MMP-2 (Homo sapiens, UniProt P08253); assay: MMP enzymatic activity, modified fluorescence assay (DNP-substrate); format: biochemical
T1 sequence (P08253 110-660): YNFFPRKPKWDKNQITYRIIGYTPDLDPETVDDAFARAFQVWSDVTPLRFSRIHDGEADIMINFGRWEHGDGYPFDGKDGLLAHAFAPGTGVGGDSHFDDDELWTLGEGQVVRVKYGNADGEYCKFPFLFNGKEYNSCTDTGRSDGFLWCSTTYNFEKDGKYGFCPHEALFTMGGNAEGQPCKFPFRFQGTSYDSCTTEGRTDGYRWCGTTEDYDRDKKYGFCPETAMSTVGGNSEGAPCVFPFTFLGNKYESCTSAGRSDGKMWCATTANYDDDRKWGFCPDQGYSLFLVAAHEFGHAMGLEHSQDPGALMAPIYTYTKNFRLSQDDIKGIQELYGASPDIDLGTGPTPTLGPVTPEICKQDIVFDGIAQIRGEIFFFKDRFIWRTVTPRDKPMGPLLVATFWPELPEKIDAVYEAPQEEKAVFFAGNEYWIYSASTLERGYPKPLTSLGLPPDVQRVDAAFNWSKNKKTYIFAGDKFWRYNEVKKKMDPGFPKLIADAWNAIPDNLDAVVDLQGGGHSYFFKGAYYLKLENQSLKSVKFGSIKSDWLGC
Procedure: (§1) IC50 values are measured by an in vitro assay for MMP enzymatic activity. […] This assay is based on the determination of MMP enzymatic activity on a dinitrophenol substrate and fluorescence measurement of the substrate after cleaving by MMPs.
(§2) Human MMP-1, MMP-2, MMP-3, MMP-9 and MMP-14 are commercially available (e.g. Calbiochem). The pro-enzymes were activated with 1 mM APMA (incubation for 30 min at 37° C.) immediately before testing. Activated enzyme is diluted to 100 ng/ml in incubation buffer (50 mM Tris, 100 mM NaCl, 10 mM CaCl2, pH 7.6). The compounds were dissolved in 100% DMSO.
(§3) The test tube contains 970 μl incubation buffer, 10 μl inhibitor solution and 10 μl enzyme solution. The reaction was started by adding the 10 μl substrate solution.

Human MMP-1 = biological target: T2, Human MMP-1 (Homo sapiens, UniProt P03956); assay: as above; format: biochemical
T2 sequence (P03956 100-469): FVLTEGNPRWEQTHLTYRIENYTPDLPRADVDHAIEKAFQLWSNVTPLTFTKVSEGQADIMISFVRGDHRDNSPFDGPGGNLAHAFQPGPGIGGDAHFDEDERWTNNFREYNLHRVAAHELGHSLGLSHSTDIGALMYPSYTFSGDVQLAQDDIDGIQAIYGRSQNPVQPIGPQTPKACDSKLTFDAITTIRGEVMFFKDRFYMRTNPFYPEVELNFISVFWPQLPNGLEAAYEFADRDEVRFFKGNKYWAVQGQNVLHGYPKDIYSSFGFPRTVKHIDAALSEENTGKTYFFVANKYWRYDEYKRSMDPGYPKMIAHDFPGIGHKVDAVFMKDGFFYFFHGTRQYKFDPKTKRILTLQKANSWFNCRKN
Procedure: as §1, §2, §3

**Q.** Which results are given for `O=C1NC(=O)C(c2ccc(-c3ccccc3)cc2)(N2CCN(c3ccc([N+](=O)[O-])cc3)CC2)C(=O)N1` [Compound I, 5-Biphenyl-4-yl-5-[4-(4-nitro-phenyl)-piperazin-1-yl]pyrimidine-2,4,6-trione]?
**A.** IC50 (Human MMP-2): 0.065 µM; IC50 (Human MMP-1): 53 µM
